According to EP1228058B1, “BENZOPYRANYL GUANIDINE DERIVATIVES, PROCESS FOR PREPARATION THEREOF, AND PHARMACEUTICAL COMPOSITIONS CONTAINING THEM” (Dongbu Hannong Chemical Co., Ltd., priority 1999, dated 2001):

Columns and labels:
[1] = tested on: ischemic heart models of rats; assay: Heart protective (anti-ischemic) activity in ischemic heart models of anesthetized rats; format: in vivo; settings: 45 min occlusion, 90 min reperfusion
Procedure: Male rats (350-450 g, obtained from the Experimental Animal Team of the Korea Research Institute of Chemical Technology) were anesthetized by the intraperitoneal injection of pentobarbital at a dose of 75 mg/kg. After trachetomy, the rats were rendered to respire artificially at a rate of 60/min with a stroke volume of 10 ml/kg. Cannulars were inserted into the fermoral vein and the fermoral artery and used for drug administration and blood pressure measurement, respectively.
In the ischemic myocardium damage models, the body temperature has an important influence on the results. To avoid the change in the body temperature, a body temperature measuring probe was inserted into the rectum of each rat and the body temperature was constantly kept at 37 °C with the aid of a homeothermic blanket control unit.
Afterwards, during testing, a continuous measurement was made of the mean arterial blood pressures and heart rates from the rats. For the measurement of the blood pressure, a pressure transducer, such as that manufactured by Grass Ins., MA, U.S.A., identified as Model Statham P23XL, was used. The heart rate was measured by a tachometer, such as that manufactured by Gould Inc., OH, U.S.A., identified as Biotachometer. In addition, all of the changes occurring were continuously recorded through the Gould 2000 chart recorder, manufactured by Gould Inc.
The left coronary artery was occluded according to the Selye H. method as follows. The rats underwent a left thoracotomy operation for partial opening of the chest and the right-side chest was pressurized by the middle finger of the left hand to push the heart out. Immediately after the left anterior descending coronary artery hereinafter referred to as (LAD) was carefully stitched using a suture needle with 5-0 silk ligature, the heart was then repositioned in the thoracic cavity while both ends of the ligature were situated outside. The opposite ligature ends were passed through a PE tube (PE100, 2.5 cm) and allowed to stand loose for 20 min for stabilization. Via the cannula inserted into the femoral vein, vehicles or drugs were administered into the rats which were rendered to stand for 30 min in order to sufficiently elicit the efficacies of the drugs. BMS-180448 was used as a control drug and the i.v.administration dose was 0.3 mg/kg for all test drugs of interest and the control drug.
Next, the PE tube which had the doubled strands of the ligature passed therethrough was pushed toward the heart and then, set upright by tightly pulling end regions of the ligature with a hemostatic pincette while pressing the coronary artery. The PE tube was allowed to stand for 45 min for the occlusion of the coronary artery, followed by the removal of the hemostatic pincette and then, by the reperfusion for 90 min.
After the reocclusion of the coronary artery in accordance with the above procedure, the rats were administered with 2 ml of a 1% Evans blue through an intravenous route. Subsequently, an excess of pentobarbital was intravenously injected to kill the rats, after which the heart was removed and then, deprived of the right ventricle and both atria. The left ventricle was cut horizontally to the heart apex into 5 or 6 slices which were weighed. From the surface of each slice, images were input with the aid of a Hi-scope into a computer installed with an image analyzing program (Image Pro Plus). From the images input into the computer, the area of the normal blood stream tissue region which appeared blue in a computer monitor and the area which appeared colorless were measured. The percentage of the colorless area to the total area of each slice was calculated and multiplied by the weight of each slice to determine the area at risk (AAR) of each slice. […]

[2] = Acute oral toxicity test in rats; settings: rat, in vivo, single oral dose in 0.5% methyl cellulose, read-out: lethal dose (LD50) for oral administration
How it was run: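 Six-week-old SPF SD rats, two per group, received a single oral dose of 1 g/kg suspended in 0.5% methyl cellulose (10 ml/kg). Survivors at the end of observation underwent haematology, serum chemistry, necropsy and histopathology of vital organs with macroscopic lesions.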

HUVEC = assay: Inhibition of HUVEC tube formation on Matrigel; format: cell-based, Human; set-up: key: -: no effect; +/-: week effect; +: moderate effect; ++: strong effect
Procedure: HUVEC (Human umbilical vein endothelial cells, ATCC CRL-1730) were cultured, and tubulogenesis was induced in vascular endothelial cells by plating them onto the surface of Matrigel for several hours. The effects on tube formation of the test compounds were compared with the vehicle treated controls, then confirmed their in vitro anti-angiogenic effect indirectly.

rat brain homogenate = assay: Inhibition of iron-induced lipid peroxidation (MDA quantification); format: biochemical; settings: 100 uM; FeCl2 400 uM, 37 °C, 30 min
Procedure: The rat brain was homogenized in a Krebs buffer (15 mM HEPES, 10 mM glucose, 140 mM NaCl, 3.6 mM KCl, 1.5 mM CaCl2, 1.4 mM KH2PO4, 0.7 mM MgCl2, pH 7.4) and the supernatant separated by centrifugation at 12,000 rpm for 10 min. was used for further experiments. FeCl2 was added to a final concentration of 400 uM in the brain homogenate which was then allowed to stand at 37 °C for 30 min. for the facilitation of oxidation. Each of the test compounds was added at a concentration of 100 uM and vehicle was used as a control.
Iron facilitates the oxidation of the brain homogenate to produce malondialdehyde (MDA), a lipid peroxidation product. Thus, the lipid peroxidation was determined by MDA quantification. The inhibitory effect of the test compounds against the lipid peroxidation was evaluated by calculating MDA reduction rate of the test compounds compared with that of the control group.
Typically, the MDA quantification is achieved by reacting samples with 2-thiobarbituric acid (TBA) and measuring the absorbance at 530 nm. However, this method is unsuitable to treat samples on a large scale because of a boiling step. Thus, in this experiment, N-methyl-2-phenylindole was used instead of TBA. […] Bioxytech^R LPO-586 Kit was used for MDA quantification.

diabetic rats = assay: Nociceptive test (hot plate test) in diabetic rats; format: in vivo; settings: 50 °C hot plate
Procedure: Effects on nociceptive responses of test compounds in rats were examined using hot plate. The same methods were applied for the induction of diabetes and treatment of test compound in rats. Rats were placed onto 50 °C hot plate, then latencies of nociceptive action such as licking were determined. The recovery (%) of nociceptive responses in diabetic rats was calculated according to the following mathematical […]. [Mathematical formula 5] Recovery(%) =(Response in treated group - Response in diabetic control)/(Response in normal control-Response in diabetic control)x100 [formula]

Row | Structure (SMILES) | Anti-ischemic Activity (in vivo, rats) (0.3 mg/kg i.v.) IZ/AAR (%) [1] | LD50 [2] | Inhibitory Effects on Tube Formation (HUVEC; 100 uM) | % Inhibition (rat brain homogenate) | Nociceptive response (diabetic rats; latency of licking) | Recovery (%) (diabetic rats; nociceptive responses) | Inhibitory Effects on Tube Formation (HUVEC; 10 uM)
1 | COC(OC)[C@@]1(C)Oc2ccc([N+](=O)[O-])cc2[C@H](NC(=NC#N)NCc2ccccc2)[C@H]1O [Example 24, (2S, 3R, 4S)-N''-cyano-N-(6-nitro-3,4-dihydro-3-hydroxy-2-methyl-2-dimethoxymethyl-2H-benzopyran-4-yl)-N'-benzylguanidine] | 48.48% | > 1000 mg/kg | + | 12% | – | – | –
2 | COC(OC)[C@@]1(C)Oc2ccc([N+](=O)[O-])cc2[C@@H](NC(=NC#N)NCc2ccccc2)[C@@H]1O [Example 25, (2S, 3S, 4R)-N''-cyano-N-(6-nitro-3,4-dihydro-3-hydroxy-2-methyl-2-dimethoxymethyl-2H-benzopyran-4-yl)-N'-benzylguanidine] | 48.55% | > 1000 mg/kg | – | 2% | – | – | –
3 | COC(OC)[C@@]1(C)Oc2ccc([N+](=O)[O-])cc2[C@H](NC(=NC#N)Nc2ccccc2Cl)[C@H]1O [Example 32, (2S, 3R, 4S)-N''-cyano-N-(6-nitro-3,4-dihydro-3-hydroxy-2-methyl-2-dimethoxymethyl-2H-benzopyran-4-yl)-N'-(2-chlorophenyl)guanidine] | 44.72% | > 1000 mg/kg | – | 86% | – | – | –
4 | COC(OC)[C@@]1(C)Oc2ccc([N+](=O)[O-])cc2[C@@H](NC(=NC#N)NCc2ccccc2)[C@@H]1OC(C)=O [Example 38, (2S, 3S, 4R)-N''-cyano-N-(6-nitro-3,4-dihydro-3-acetoxy-2-methyl-2-dimethoxymethyl-2H-benzopyran-4-yl)-N'-benzylguanidine] | 51.13% | > 1000 mg/kg | – | 4% | – | – | –
5 | COC(OC)[C@@]1(C)Oc2ccc(N)cc2[C@@H](NC(=NC#N)NCc2ccccc2)[C@@H]1O [Example 40, (2S, 3S, 4R)-N''-cyano-N-(6 - amino-3,4-dihydro-3-hydroxy-2-methyl-2-dimethoxymethyl-2H-benzopyran-4-yl)-N'-benzylguanidine] | 30.25% | > 1000 mg/kg | ++ | 79% | 4.791 s | 106.5% | +
